We go through six compounds from US7220563B2 (priority 2002, dated 2007).

The test system of the assay is recombinant GAO. Type of assay: biochemical.

Regarding `O=C(O)CN(CCN(CC(=O)O)CC(=O)O)CC(=O)O` [EDTA], the “effect on activation of the recombinant GAO” value (“effect on activation” below) is recorded as “did not affect activation”.

With iron, the “effect on activation” value is “did not affect activation”.

nickel: the “effect on activation” value was “did not affect activation”.

On to cobalt, for which the “effect on activation” value was “did not affect activation”.

With manganese, the “effect on activation” value was “did not affect activation”.

`O=S(=O)([O-])[O-].[Cu+2]` [CuSO4, copper sulfate]: the “concentration sufficient to activate recombinant GAO” value came out at 0.1 mM, the “effect on GAO activity” value was “slightly inhibited” and the “preferred concentration for activating crude enzyme solution” value was determined as 0.4 mM.
